In patent US6673368B2, “Colonic motor dysfunction remedies comprising aminothiazole derivatives as active ingredients” (Zeria Phamaceutical Co., Ltd., priority 2000, dated 2004):

Tests used:
[1] = tested on: gastric antrum of male dogs; assay: Effects on gastric motor activity (force transducers, conscious dogs, postcibal period); assay type: in vivo; conditions: dog, until 1 hour after administration, 30 minutes before administration = 100%
Text: (§1) Test 1 [Effects on Gastric and Colonic Motor Activity]
(§2) Force transducers (“F-12IS”, trade name; manufactured by Star Medical Technologies, Inc.) were chronically sutured in the gastric antrum and large intestines of male dogs (body weight: 9 to 11 kg, 5 to 6 dogs per group) (Itoh, Z. et al., Am. J. Dig. Dis. 22, 117-124, 1977). Contraction signals from the respective regions in postcibal period were amplified and recorded (“RTA-1200”, trade name; manufactured by Nihon Kohden Corporation). The contraction signals, which had been collected in a computer, were analyzed by using an analysis program (“DSSDDWHD V.30”, trade name; prepared by Nihon Kohden Corporation), whereby motor indexes were calculated. The test drugs were administered through catheters which had been chronically indwelled beforehand in the duodenum, respectively. Supposing that the coefficient of motor 30 minutes before the administration of drug was 100%, the results were calculated as percents of motor index until 1 hour after the administration.

[2] = tested on: large intestines of male dogs; assay: Effects on colonic motor activity (force transducers, conscious dogs, postcibal period); assay type: in vivo; conditions: dog; for Percent of motor index, large intestine: until 1 hour after administration, 30 minutes before administration = 100%; for Effect on colonic motility (in words): intraduodenal, doses of Table 1
Text: as §1, §2

male SD rats = assay: Effects on defecation in rats; assay type: in vivo, rat; conditions: 10 mg/kg intraperitoneal, dry stool weight until 60 minutes after administration, control average = 100%
Experimental: Test 2 [Effects on Defecation]
Test drugs were intraperitoneally administered to male SD rats (8 rats per group). Stools were recovered until 60 minutes after the administration, and their dry weights were measured. Supposing that that the average of stool weights in a control group was 100%, the averages of percent weights of individual test drug groups were calculated.

SMILES	Percent of motor index, gastric antrum ([1]; 1 mg/kg intraduodenal) [%]	Percent of motor index, large intestine ([2]; 1 mg/kg intraduodenal) [%]	Effect on colonic motility (in words) [2]	Percent of motor index, gastric antrum ([1]; 10 mg/kg intraduodenal) [%]	Percent of motor index, large intestine ([2]; 10 mg/kg intraduodenal) [%]	Percent stool weight (male SD rats) [%]	Percent of motor index, gastric antrum ([1]; 3 mg/kg intraduodenal) [%]	Percent of motor index, large intestine ([2]; 3 mg/kg intraduodenal) [%]
COc1cc(N)c(Cl)cc1C(=O)NC1CCN(CCCOc2ccc(F)cc2)CC1OC (stereo not drawn) [Cisapride, cisapride]	158.7	114.5	no significant effect	–	–	–	–	–
COc1cc(O)c(C(=O)Nc2nc(C(=O)NCCN(C(C)C)C(C)C)cs2)cc1OC.Cl.O.O.O [Compound 1, N-(N′,N′-diisopropylaminoethyl)-[2-(2-hydroxy-4,5-dimethoxybenzoylamino)-1,3-thiazol-4-yl]carboxamide HCL trihydrate]	–	–	–	163.7	136.1	361.8	–	–
CCOc1cc(N)c(Cl)cc1C(=O)NCC1CN(Cc2ccc(F)cc2)CCO1 (stereo not drawn) [Mosapride, mosapride]	–	–	no significant effect	–	–	–	146.2	119.2
COc1ccc(C(=O)NCc2ccc(OCCN(C)C)cc2)cc1OC [Itopride, itopride]	–	–	no significant effect	132.7	122.1	–	–	–
CC(C)N(CCNC(=O)c1csc(NC(=O)c2cccc(N)c2)n1)C(C)C [Compound 3, N-(N′,N′-diisopropylaminoethyl)-[2-(3-aminobenzoyl-amino)-1,3-thiazol-4-yl]carboxamide]	–	–	–	244.6	249.9	733.3	–	–
CC(C)N(CCNC(=O)c1csc(NC(=O)c2cccc(C#N)c2)n1)C(C)C.Cl [Compound 2, N-(N′,N′-diisopropylaminoethyl)-[2-(3-cyanobenzoyl-amino)-1,3-thiazol-4-yl]carboxamide hydrochloride]	–	–	–	189.5	221.7	766.7	–	–
